# Target: unphosphorylated-BTK kinase domain (UP-BTK), GST-tagged human BTK (389-659aa) (Homo sapiens (Human), UniProt Q06187)
# Experiment: BTK kinase Lanthascreen binding assay
# Details: Lanthascreen tracer competition, 60 minutes incubation; pIC50 = negative log of the IC50 in molar
# Outline: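 Lanthascreen competition binding; test compound vs fluorescent tracer on unphosphorylated BTK. Output: pIC50 (−log IC50, M).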
# unphosphorylated-BTK kinase domain (UP-BTK), GST-tagged human BTK (389-659aa), sequence (Q06187 389-659): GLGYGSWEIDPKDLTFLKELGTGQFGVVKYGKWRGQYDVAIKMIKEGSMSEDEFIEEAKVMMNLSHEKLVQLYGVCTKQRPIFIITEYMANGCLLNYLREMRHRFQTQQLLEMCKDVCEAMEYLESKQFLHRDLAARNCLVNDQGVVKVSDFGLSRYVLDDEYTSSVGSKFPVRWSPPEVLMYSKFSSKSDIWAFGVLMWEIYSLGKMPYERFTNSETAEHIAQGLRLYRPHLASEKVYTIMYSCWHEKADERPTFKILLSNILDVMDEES
row,Structure (SMILES),BTK_I_binding pIC50
1,"O=C(N[C@@H]1CCCNC1)c1sc2nccc3c2c1NC(=O)N3c1cnnc(-c2ccccc2)c1 [Example 740, (R)-4-Oxo-5-(6-phenylpyridazin-4-yl)-N-(piperidin-3-yl)-4,5-dihydro-3H-1-thia-3,5,8-triazaacenaphthylene-2-carboxamide]",<6
2,"Cc1cc(Oc2ccccc2)ccc1N1C(=O)Nc2c(C(=O)NC3CCNCC3)sc3nccc1c23 [Example 865, 5-(2-Methyl-4-phenoxyphenyl)-4-oxo-N-(piperidin-4-yl)-4,5-dihydro-3H-1-thia-3,5,8-triazaacenaphthylene-2-carboxamide]",7.3
3,"CC(C)(C)OC(=O)N1CCC[C@@H](NC(=O)c2sc3nccc4c3c2NC(=O)N4c2cccc(C3CCOCC3)c2)C1 [Example 739, (R)-tert-Butyl 3-(4-oxo-5-(3-(tetrahydro-2H-pyran-4-yl)phenyl)-4,5-dihydro-3H-1-thia-3,5,8-triazaacenaphthylene-2-carboxamido)piperidine-1-carboxylate]",<6
4,"CC(=O)c1cccc(N2C(=O)Nc3c(C(=O)N[C@@H]4CCCN(C(=O)OC(C)(C)C)C4)sc4nccc2c34)c1 [Example 649, (R)-tert-Butyl 3-(5-(3-acetylphenyl)-4-oxo-4,5-dihydro-3H-1-thia-3,5,8-triazaacenaphthylene-2-carboxamido)piperidine-1-carboxylate]",<5
5,"C=CC(=O)N1CCC[C@@H](NC(=O)c2sc3nccc4c3c2NC(=O)N4c2cnc(OC(C)C)cc2C)C1 (single isomer, unassigned) [Example 789, (R)—N-(1-Acryloylpiperidin-3-yl)-5-(*S)-(6-isopropoxy-4-methylpyridin-3-yl)-4-oxo-4,5-dihydro-3H-1-thia-3,5,8-triazaacenaphthylene-2-carboxamide]",8.1
6,"C=CC(=O)N1CCC[C@@H](NC(=O)c2sc3nccc4c3c2NC(=O)N4c2cccc(CC(C)C)c2)C1 [Example 689, (R)—N-(1-Acryloylpiperidin-3-yl)-5-(3-isobutylphenyl)-4-oxo-4,5-dihydro-3H-1-thia-3,5,8-triazaacenaphthylene-2-carboxamide]",7.6
7,"C=CC(=O)N1CC[C@@H](NC(=O)c2sc3nccc4c3c2NC(=O)N4c2ccc(Oc3ccccn3)cc2C)C1 [Example 781, (R)—N-(1-Acryloylpyrrolidin-3-yl)-5-(2-methyl-4-(pyridin-2-yloxy)phenyl)-4-oxo-4,5-dihydro-3H-1-thia-3,5,8-triazaacenaphthylene-2-carboxamide]",7.4
8,"C=CC(=O)N1CCC[C@@H](NC(=O)c2sc3nccc4c3c2NC(=O)N4c2ccnc(C3CCCCC3)c2)C1 [Example 677, (R)—N-(1-Acryloylpiperidin-3-yl)-5-(2-cyclohexylpyridin-4-yl)-4-oxo-4,5-dihydro-3H-1-thia-3,5,8-triazaacenaphthylene-2-carboxamide]",7.3
9,"C=CC(=O)N1CCC[C@@H](NC(=O)c2sc3nccc4c3c2NC(=O)N4c2ccc(OC3CCOCC3)cc2C)C1 (single isomer, unassigned) [Example 814, (R)—N-(1-Acryloylpiperidin-3-yl)-5-(*R)-(2-methyl-4-((tetrahydro-2H-pyran-4-yl)oxy)phenyl)-4-oxo-4,5-dihydro-3H-1-thia-3,5,8-triazaacenaphthylene-2-carboxamide]",<6
10,"COc1ccccc1Oc1ccc(N2C(=O)Nc3c(C(=O)NC4CCCN(C(=O)/C(C#N)=C/C5CC5)C4)sc4nccc2c34)c(C)c1 (centres unmarked) [Example 856, (E)-N-(1-(2-Cyano-3-cyclopropylacryloyl)piperidin-3-yl)-5-(4-(2-methoxyphenoxy)-2-methylphenyl)-4-oxo-4,5-dihydro-3H-1-thia-3,5,8-triazaacenaphthylene-2-carboxamide]",7.5
11,"O=C(N[C@@H]1CCCNC1)c1sc2nccc3c2c1NC(=O)N3c1ccc(O)cc1 [Example 642, (R)-5-(4-Hydroxyphenyl)-4-oxo-N-(piperidin-3-yl)-4,5-dihydro-3H-1-thia-3,5,8-triazaacenaphthylene-2-carboxamide]",5.3

# Same assay, conditions: Lanthascreen tracer competition, 60 minutes incubation; pIC50 = negative log of the IC50 in molar; read-out: BTK_I_binding pIC50 (converted)
row,Structure (SMILES),IC50
1,"Cc1cc(OC2CCC2)ccc1N1C(=O)Nc2c(C(=O)N[C@@H]3CCCNC3)sc3nccc1c23 [Example 605, (R)-5-(4-cyclobutoxy-2-methylphenyl)-4-oxo-N-(piperidin-3-yl)-4,5-dihydro-3H-1-thia-3,5,8-triazaacenaphthylene-2-carboxamide]",0.501 µM
2,"Cc1cc(Oc2ccccc2)ccc1N1C(=O)Nc2c(C(=O)NC3CCCN(C(=O)CC#N)C3)sc3nccc1c23 (stereo in doubt) [Example 874, (R)—N-(1-(2-cyanoacetyl)piperidin-3-yl)-5-(2-methyl-4-phenoxyphenyl)-4-oxo-4,5-dihydro-3H-1-thia-3,5,8-triazaacenaphthylene-2-carboxamide]",0.0631 µM

# Same assay, conditions: pIC50 = negative log of the IC50 in molar; 60 minutes incubation, 50 nM Tracer 236
row,Structure (SMILES),BTK_I_binding pIC50
1,"C=C(C)C(=O)N1CCC[C@@H](NC(=O)c2sc3nccc4c3c2NC(=O)N4c2ccc(Oc3ccccc3)cc2C)C1 [Example 204, (R)—N-(1-Methacryloylpiperidin-3-yl)-5-(2-methyl-4-phenoxyphenyl)-4-oxo-4,5-dihydro-3H-1-thia-3,5,8-triazaacenaphthylene-2-carboxamide]",6.9
2,"Cc1cc(Oc2ccccc2F)ccc1N1C(=O)Nc2c(C(=O)NC3CCCN(C)C3)sc3nccc1c23 (stereo in doubt) [Example 57, (R)-5-(4-(2-Fluorophenoxy)-2-methylphenyl)-N-(1-methylpiperidin-3-yl)-4-oxo-4,5-dihydro-3H-1-thia-3,5,8-triazaacenaphthylene-2-carboxamide]",6.8
3,"CNCC(=O)N1CCC[C@@H](NC(=O)c2sc3nccc4c3c2NC(=O)N4c2ccc(Oc3ccccc3)cc2C)C1 (single isomer, unassigned) [Example 183, (R)-5-(*S)-(2-Methyl-4-phenoxyphenyl)-N-(1-(2-(methylamino)acetyl)piperidin-3-yl)-4-oxo-4,5-dihydro-3H-1-thia-3,5,8-triazaacenaphthylene-2-carboxamide]",7.5
4,"C=CC(=O)N1CC[C@@H](NC(=O)c2sc3nccc4c3c2NC(=O)N4c2ccc(OC(C)C)cc2C)C1 [Example 126, (R)—N-(1-Acryloylpyrrolidin-3-yl)-5-(4-isopropoxy-2-methylphenyl)-4-oxo-4,5-dihydro-3H-1-thia-3,5,8-triazaacenaphthylene-2-carboxamide]",6.7
5,"Cc1cc(Oc2ccccc2)ccc1N1C(=O)Nc2c(C(=O)N[C@H]3CN(C)C[C@@H]3F)sc3nccc1c23 [Example 186, N-((3S,4S)-4-Fluoro-1-methylpyrrolidin-3-yl)-5-(2-methyl-4-phenoxyphenyl)-4-oxo-4,5-dihydro-3H-1-thia-3,5,8-triazaacenaphthylene-2-carboxamide]",6.8
6,"C=C(F)C(=O)N1CCC[C@@H](NC(=O)c2sc3nccc4c3c2NC(=O)N4c2ccc(Oc3ccccc3)cc2C)C1 (single isomer, unassigned) [Example 49, (R)—N-(1-(2-Fluoroacryloyl)piperidin-3-yl)-5-(*S)-(2-methyl-4-phenoxyphenyl)-4-oxo-4,5-dihydro-3H-1-thia-3,5,8-triazaacenaphthylene-2-carboxamide]",7.2
7,"Cc1cc(Oc2ccccc2)ccc1N1C(=O)Nc2c(C(=O)NC3CCOCC3)sc3nccc1c23 [Example 123, 5-(2-Methyl-4-phenoxyphenyl)-4-oxo-N-(tetrahydro-2H-pyran-4-yl)-4,5-dihydro-3H-1-thia-3,5,8-triazaacenaphthylene-2-carboxamide]",6.9

# Same assay, conditions: unphosphorylated-BTK kinase domain, 50 nM Tracer 236, 60 minutes; pIC50 = negative log of the IC50 in molar
row,Structure (SMILES),BTK_I_binding pIC50
1,"COCC(=O)N1CCC[C@@H](NC(=O)c2sc3nccc4c3c2NC(=O)N4c2ccc(Oc3ccccc3)cc2)C1 [Example 576, (R)—N-(1-(2-Methoxyacetyl)piperidin-3-yl)-4-oxo-5-(4-phenoxyphenyl)-4,5-dihydro-3H-1-thia-3,5,8-triazaacenaphthylene-2-carboxamide]",7.3
2,"C=CC(=O)N1CCC[C@@H](NC(=O)c2sc3nccc4c3c2NC(=O)N4c2ccn(Cc3ccccc3)n2)C1 [Example 420, (R)—N-(1-Acryloylpiperidin-3-yl)-5-(1-benzyl-1H-pyrazol-3-yl)-4-oxo-4,5-dihydro-3H-1-thia-3,5,8-triazaacenaphthylene-2-carboxamide]",6.0
3,"C=CC(=O)N1CC[C@@H](NC(=O)c2sc3nccc4c3c2NC(=O)N4c2ccc(Oc3ccccc3)cc2C(F)(F)F)C1 [Example 324, (R)—N-(1-Acryloylpyrrolidin-3-yl)-4-oxo-5-(4-phenoxy-2-(trifluoromethyl)phenyl)-4,5-dihydro-3H-1-thia-3,5,8-triazaacenaphthylene-2-carboxamide]",5.7
4,"C=CC(=O)N1CCC[C@@H](NC(=O)c2sc3nccc4c3c2NC(=O)N4c2cccc(C3CC3)c2)C1 [Example 569, (R)—N-(1-Acryloylpiperidin-3-yl)-5-(3-cyclopropylphenyl)-4-oxo-4,5-dihydro-3H-1-thia-3,5,8-triazaacenaphthylene-2-carboxamide]",7.0
5,"CNCC(=O)N1CC[C@@H](NC(=O)c2sc3nccc4c3c2NC(=O)N4c2ccc(Oc3ccccc3)cc2C)C1 [Example 391, (R)-5-(2-Methyl-4-phenoxyphenyl)-N-(1-(2-(methylamino)acetyl)pyrrolidin-3-yl)-4-oxo-4,5-dihydro-3H-1-thia-3,5,8-triazaacenaphthylene-2-carboxamide]",7.2
6,"Cc1cc(Oc2ccccc2C(N)=O)ccc1N1C(=O)Nc2c(C(=O)N[C@@H]3CCCN(C)C3)sc3nccc1c23 [Example 326, (R)-5-(4-(2-Carbamoylphenoxy)-2-methylphenyl)-N-(1-methylpiperidin-3-yl)-4-oxo-4,5-dihydro-3H-1-thia-3,5,8-triazaacenaphthylene-2-carboxamide]",5.7

# Source: patent publication US10800792B2, “Inhibitors of Bruton's tyrosine kinase and method of their use” (JANSSEN PHARMACEUTICA NV, priority 2015, dated 2020)
